Tests used:
CDK2 [1] = biological target: T1, CDK2 (Homo sapiens, UniProt P24941); assay: Inhibition of CDK2: phospho-Rb (S807/811) HTRF measurement in OVCAR3 cells; type: cell-based; conditions: 24 h compound treatment, read-out: pRb (nM), IC50 in pRB(S807/811) assay
T1 construct: High-Throughput Measurement of Cellular Endogenous CDK2; endogenous in cells; host or cells: OVCAR3
Procedure: Phosphorylation of RB protein at S807/811 were measured using HTRF phospho-RB cellular kits (Cat #64RBS807PEG) from Cisbio.
On Day 1, OVCAR3 (dependent on CDK2) cells were seeded into 96-well tissue-culture treated plates at 20,000 cells/well in 200 μL and incubated overnight at 37° C. in CO2 atmosphere. On Day 2, the cells were treated with test compounds at concentrations from 0.3 to 10,000 nM using HP D300 digital dispenser. Twenty-four hours after compound treatment, cell culture media was removed by flicking the plate and tapping the plate against clean paper towel. Immediately 30 μL 1× lysis buffer was supplemented from the kit and the plate was incubated at room temperature on shaker for 30 min. After homogenization by pipetting up and down, 8 μL cell lysate from 96-well cell culture plate was transferred to 384-well small volume white detection plate. 2 μL premixed detection solution was added and the plate was covered with sealer. To prepare the detection solution, d2 conjugated-phospho-RB antibody and Eu-cryptate conjugated phosphor-RB antibody were diluted into detection buffer following manufacturer's instruction. Detection plates were incubated for 4 h at room temperature and read on ClarioStar (BMG Labtech) in TR-FRET mode (665 nM and 620 nM). The TR-FRET ratio (665 nM/620 nM) was plotted against the compound concentration and normalized to DMSO controls. Half maximal inhibition concentration (IC50) values are calculated with a four-parameter logistic fit using GraphPad Prism (version 8; La Jolla, CA).
In the table below, A indicates a IC50 of less than 0.1 μM; B indicates a IC50 of greater than or equal to 0.1 μM but less than 0.5 μM; C indicates a IC50 of greater than or equal to 0.5 μM but less than 1 μM; and D indicates a […] of greater than or equal to 1 μM but less than 10 μM.

CDK2 [2] = biological target: T1, CDK2; assay: CDK2 HTRF assay: cellular endogenous CDK2 level in OVCAR3 cells; type: cell-based; conditions: 24 hours compound treatment, read-out: DC50 (half maximal degradation concentration of CDK2)
Procedure: Effects of compounds on cellular CDK2 level can be monitored by a high-throughput HTRF assay or traditional Western Blot assay.
To determine half maximal degradation concentration (DC50) values of compounds, cellular CDK2 level was measured in 96-well format using HTRF total CDK2 cellular kit (Cat #64CDK2TPEG) from Cisbio.
On Day 1, OVCAR3 cells were seeded into 96-well tissue-culture treated plates at 20,000 cells/well in 200 μL and incubated overnight at 37° C. in CO2 atmosphere. On Day 2 cells were treated with compounds at concentration ranging from 0.3 to 10,000 nM using HP D300 digital dispenser. 24 hours after compound treatment, cell culture media was removed by flicking the plate and tapping the plate against clean paper towel. Immediately 30 μL 1× lysis buffer was supplemented from the kit and the plate was incubated at room temperature on shaker for 30 min. After homogenization by pipetting up and down, 8 μL cell lysate from 96-well cell culture plate was transferred to 384-well small volume white detection plate. 2 μL premixed detection solution was added and the plate was covered with sealer. To prepare the detection solution, d2 conjugated-CDK2 antibody and Eu-cryptate conjugated CDK2 antibody were diluted into detection buffer following manufacturer's instruction. Detection plates were incubated overnight at room temperature and read on ClarioStar (BMG Labtech) in TR-FRET mode (665 nM and 620 nM). The TR-FRET ratio (665 nM/620 nM) was plotted against the compound concentration and normalized to DMSO controls. Half maximal degradation concentration (DC50) values were calculated with a four-parameter logistic fit using GraphPad Prism (version 8; La Jolla, CA).
In the table below, A indicates a DC50 of less than 0.1 μM; B indicates a DC50 of greater than or equal to 0.1 μM but less than 0.5 μM; C indicates a DC50 of greater than or equal to 0.5 μM but less than 1 μM; and D indicates a DC50 of greater than or equal to 1 μM but less than 10 μM.

SMILES: O=C1CCC(N2Cc3cc(C4CN(Cc5cccc(S(=O)(=O)N6CCC(Nc7ncc(C(F)(F)F)c(-c8cnn(CC(F)(F)F)c8)n7)CC6)c5)C4)ccc3C2=O)C(=O)N1 (centres unmarked) [Example 3, 3-(1-oxo-5-(1-(3-((4-((4-(1-(2,2,2-trifluoroethyl)-1H-pyrazol-4-yl)-5-(trifluoromethyl)pyrimidin-2-yl)-amino)-piperidin-1-yl)sulfonyl)-benzyl)azetidin-3-yl)isoindolin-2-yl)piperidine-2,6-dione]
- IC50 (CDK2 [1]): < 100 nM
- DC50 (CDK2 [2]): < 100 nM

SMILES: O=C1CCC(NCc2cccc(S(=O)(=O)N3CCC(Nc4ncc(C(F)(F)F)c(-c5cnn(CC(F)(F)F)c5)n4)CC3)c2)C(=O)N1 (centres unmarked) [Example 68, 3-((3-((4-((4-(1-(2,2,2-trifluoroethyl)-1H-pyrazol-4-yl)-5-(trifluoromethyl)-pyrimidin-2-yl)amino)piperidin-1-yl)-sulfonyl)benzyl)amino)piperidine-2,6-dione]
- IC50 (CDK2 [1]): < 100 nM
- DC50 (CDK2 [2]): < 100 nM

SMILES: O=C1CCC(c2ccc(N3CCN(Cc4cccc(S(=O)(=O)N5CCC(Nc6ncc(C(F)(F)F)c(-c7cnn(CC(F)(F)F)c7)n6)CC5)c4)CC3)cc2)C(=O)N1 (centres unmarked) [Example 2, 3-(4-(4-(3-((4-((4-(1-(2,2,2-trifluoro-ethyl)-1H-pyrazol-4-yl)-5-(trifluoro-methyl)pyrimidin-2-yl)amino)piperidin-1-yl)sulfonyl)benzyl)piperazin-1-yl)-phenyl)piperidine-2,6-dione]
- IC50 (CDK2 [1]): < 100 nM
- DC50 (CDK2 [2]): < 100 nM

SMILES: CC(C)(O)Cn1cc(-c2nc(NC3CCN(S(=O)(=O)c4cccc(CN5CCN(c6ccc(N7CCC(=O)NC7=O)cc6)CC5)c4)CC3)ncc2C(F)(F)F)cn1 [Example 24, 1-(4-(4-(3-((4-((4-(1-(2-hydroxy-2-methylpropyl)-1H-pyrazol-4-yl)-5-(trifluoromethyl)pyrimidin-2-yl)amino)-piperidin-1-yl)sulfonyl)benzyl)-piperazin-1-yl)phenyl)dihydro-pyrimidine-2,4(1H,3H)-dione]
- IC50 (CDK2 [1]): < 100 nM
- DC50 (CDK2 [2]): < 100 nM

SMILES: O=C1CCC(N2CC3CCC(C2)N3Cc2cccc(S(=O)(=O)N3CCC(Nc4ncc(C(F)(F)F)c(-c5cnn(CC(F)(F)F)c5)n4)CC3)c2)C(=O)N1 (centres unmarked) [Example 65, 3-(8-(3-((4-((4-(1-(2,2,2-trifluoro-ethyl)-1H-pyrazol-4-yl)-5-(trifluoro-methyl)pyrimidin-2-yl)amino)-piperidin-1-yl)sulfonyl)benzyl)-3,8-diazabicyclo-[3.2.1]octan-3-yl)-piperidine-2,6-dione]
- IC50 (CDK2 [1]): < 100 nM
- DC50 (CDK2 [2]): < 100 nM

SMILES: O=C1CCC(N2C(=O)c3cc(F)c(N4CCN(Cc5cccc(S(=O)(=O)N6CCC(Nc7ncc(C(F)(F)F)c(-c8cnn(C9CCOCC9)c8)n7)CC6)c5)CC4)cc3C2=O)C(=O)N1 (centres unmarked) [Example 10, 2-(2,6-dioxopiperidin-3-yl)-5-fluoro-6-(4-(3-((4-((4-(1-(tetrahydro-2H-pyran-4-yl)-1H-pyrazol-4-yl)-5-(trifluoromethyl)-pyrimidin-2-yl)amino)-piperidin-1-yl)-sulfonyl)benzyl)-piperazin-1-yl)iso-indoline-1,3-dione]
- IC50 (CDK2 [1]): < 100 nM
- DC50 (CDK2 [2]): < 100 nM

SMILES: O=C1CCN(C2CCN(Cc3cccc(S(=O)(=O)N4CCC(Nc5ncc(C(F)(F)F)c(-c6cnn(CC(F)(F)F)c6)n5)CC4)c3)C2)C(=O)N1 (centres unmarked) [Example 81, 1-(1-(3-((4-((4-(1-(2,2,2-trifluoro-ethyl)-1H-pyrazol-4-yl)-5-(trifluoromethyl)-pyrimidin-2-yl)amino)-piperidin-1-yl)sulfonyl)benzyl)-pyrrolidin-3-yl)-dihydropyrimidine-2,4(1H,3H)-dione]
- IC50 (CDK2 [1]): < 100 nM
- DC50 (CDK2 [2]): < 100 nM
